Our source for the IC50 values is ChEMBL document CHEMBL1133041, “Synthetic conversion of ACAT inhibitor to acetylcholinesterase inhibitor” (Bioorg Med Chem Lett, 2000).

Each structure is given as a SMILES string. Bounds are passed on as bounds.

Assay [1] addresses T1, Acetylcholinesterase (Homo sapiens, UniProt P22303). Kind of assay: Inhibitory activity against Acetylcholinesterase.
For assay [2], the target named is T2, Sterol O-acyltransferase 1 (Homo sapiens, UniProt P35610).
T2 sequence (P35610 whole entry): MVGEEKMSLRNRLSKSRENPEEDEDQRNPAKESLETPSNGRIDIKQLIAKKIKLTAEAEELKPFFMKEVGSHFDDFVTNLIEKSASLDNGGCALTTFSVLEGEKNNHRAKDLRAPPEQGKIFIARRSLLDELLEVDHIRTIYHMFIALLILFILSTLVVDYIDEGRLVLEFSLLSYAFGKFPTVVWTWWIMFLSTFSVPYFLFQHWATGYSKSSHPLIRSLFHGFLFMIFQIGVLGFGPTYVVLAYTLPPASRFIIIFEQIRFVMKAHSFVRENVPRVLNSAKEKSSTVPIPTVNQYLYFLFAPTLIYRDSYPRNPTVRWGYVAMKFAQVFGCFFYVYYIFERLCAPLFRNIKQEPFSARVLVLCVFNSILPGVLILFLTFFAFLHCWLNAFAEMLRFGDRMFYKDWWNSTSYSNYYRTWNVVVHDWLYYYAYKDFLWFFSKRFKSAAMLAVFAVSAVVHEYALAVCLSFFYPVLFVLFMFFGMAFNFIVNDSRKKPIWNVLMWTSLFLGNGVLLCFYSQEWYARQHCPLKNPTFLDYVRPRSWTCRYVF
The assay can be described thus: Inhibitory activity against acyl-CoA:cholesterol acyltransferase (ACAT).

The target in assay [3] is T2, Sterol O-acyltransferase 1. The assay can be described thus: Inhibitory activity against acyl-CoA:cholesterol acyltransferase (ACAT); no inhibition >1000.
Assay [4] has as its target T1, Acetylcholinesterase. The assay can be described thus: Inhibitory activity against Acetylcholinesterase; no inhibition at 100 uM.

T1 sequence (P22303 whole entry): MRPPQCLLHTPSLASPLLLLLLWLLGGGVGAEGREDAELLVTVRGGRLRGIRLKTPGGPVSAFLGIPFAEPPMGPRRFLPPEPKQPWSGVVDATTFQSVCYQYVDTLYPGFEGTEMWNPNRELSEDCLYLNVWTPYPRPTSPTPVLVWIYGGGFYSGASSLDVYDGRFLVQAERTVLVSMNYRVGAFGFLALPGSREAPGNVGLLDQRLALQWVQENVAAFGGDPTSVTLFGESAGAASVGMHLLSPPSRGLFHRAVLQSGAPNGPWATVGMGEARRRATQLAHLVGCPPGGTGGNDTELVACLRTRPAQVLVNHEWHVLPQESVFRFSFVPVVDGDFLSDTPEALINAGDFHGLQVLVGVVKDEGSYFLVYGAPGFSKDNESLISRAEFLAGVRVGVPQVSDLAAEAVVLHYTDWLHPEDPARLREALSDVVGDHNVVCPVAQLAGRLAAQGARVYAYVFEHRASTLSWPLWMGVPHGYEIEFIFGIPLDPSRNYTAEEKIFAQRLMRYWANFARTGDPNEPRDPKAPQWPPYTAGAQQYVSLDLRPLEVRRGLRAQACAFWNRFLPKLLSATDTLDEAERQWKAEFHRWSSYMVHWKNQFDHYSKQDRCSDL

On to `COc1ccc(-c2cc3c(c(=O)o2)C(=O)C2[C@@]4(C)CC[C@H](O)[C@@](C)(CO)C4C[C@H](O)[C@@]2(C)O3)cc1OC` (stereo partly specified), for which, on Acetylcholinesterase [1], the IC50 came to 58 µM.

Turning to `C[C@]12CC[C@H](O)[C@@](C)(CO)C1C[C@H](O)[C@@]1(C)Oc3cc(-c4ccc(Cl)nc4)oc(=O)c3C(=O)C21` (stereo partly specified), the midpoint of inhibition against Acetylcholinesterase [1], the IC50, lay at 80 µM.

In turn, `C[C@]12CC[C@H](O)[C@@](C)(CO)C1C[C@H](O)[C@@]1(C)Oc3cc(-c4cccnc4)oc(=O)c3C(=O)C21` (stereo partly specified) had an IC50 against Acetylcholinesterase [1] of 35 µM.

With `COc1ccc(-c2cc3c(c(=O)o2)C[C@]2(O)[C@@]4(C)C(=O)C=CC(C)(C)[C@]4(O)CC[C@@]2(C)O3)cc1OC`, the IC50 in assay [2] was over 50 µM; against Acetylcholinesterase [1], 0.001 µM.

For the compound `C[C@]12CC[C@H](O)[C@@](C)(CO)C1C[C@H](O)[C@@]1(C)Oc3cc(-c4ccncc4)oc(=O)c3C(=O)C21` (stereo partly specified), the values for the IC50 entry (in assay [3]; on Acetylcholinesterase [1]) were “No inhibition” and 7.9 µM, respectively.

`COc1cccc(-c2cc3c(c(=O)o2)C(=O)C2[C@@]4(C)CC[C@H](O)[C@@](C)(CO)C4C[C@H](O)[C@@]2(C)O3)c1` (stereo partly specified) showed an IC50 at Acetylcholinesterase [1] of over 93 µM.

With `COc1cc(-c2cc3c(c(=O)o2)C[C@]2(O)[C@@]4(C)C(=O)C=CC(C)(C)[C@]4(O)CC[C@@]2(C)O3)cc(OC)c1OC` [TERRITREM B], the IC50 in assay [2] is over 50 µM; on Acetylcholinesterase [1], 0.008 µM.

In the case of `COc1ccc(-c2cc3c(c(=O)o2)C(=O)C2[C@@]4(C)CC[C@H](O)[C@@](C)(CO)C4C[C@H](O)[C@@]2(C)O3)cc1` (stereo partly specified), the IC50 entry in assay [3] was “Not Active”; against Acetylcholinesterase [1], 70 µM.

Take `C[C@]12CC[C@H](O)[C@@](C)(CO)C1C[C@H](O)[C@@]1(C)Oc3cc(-c4ccccn4)oc(=O)c3C(=O)C21` (stereo partly specified): the IC50 against Acetylcholinesterase [1] was 101 µM.

At Acetylcholinesterase [1], `C[C@]12CC[C@H](O)[C@@](C)(CO)C1C[C@H](O)[C@@]1(C)Oc3cc(-c4ccccc4)oc(=O)c3C(=O)C21` (stereo partly specified) yielded an IC50 of 99 µM.

Take `COc1ccc(-c2cc3c(c(=O)o2)C[C@]2(O)[C@@]4(C)C(=O)C=CC(C)(C)[C@]4(O)CC[C@@]2(C)O3)cc1`: half-maximal inhibition against Acetylcholinesterase [1] (IC50) was put at 0.026 µM.

`CC(=O)OC[C@@]1(C)C2C[C@H](OC(C)=O)[C@@]3(C)Oc4cc(-c5cccnc5)oc(=O)c4[C@H](O)C3[C@@]2(C)CC[C@@H]1OC(C)=O` (stereo partly specified): on Acetylcholinesterase [4], the IC50 entry is on record as “No inhibition”.

Broadly, the IC50 is the concentration that inhibits the measured activity by half.
